≈ marks a conversion by molar mass, not a printed value.
Legend:
Format in all cases: cell-based
[1] = system: Candida albicans ATCC 24433; test: Antifungal MIC by broth dilution (CLSI M27-A2), RPMI 1640 with MOPS; settings: broth macro-dilution, end point after 48 hours, MIC = 80% inhibition vs growth control (Amphotericin B: complete inhibition); for MIC: Candida albicans, ATCC24433, read-out: MIC C. albicans ATCC 24433
Procedure: (§1) The compounds of Formula 1 were tested for antifungal activity against Candida albicans, Aspergillus niger and Fusarium proliferatum. In vitro evaluation of antifungal activity was performed by determining the minimum inhibitory concentration (MIC) following standard methods (CLSI: Reference method for broth dilution antifungal susceptibility testing of yeasts; Approved standard, second edition M27-A2, 2002; CLSI: Reference method for broth dilution antifungal susceptibility testing of filamentous fungi; Approved standard M38-A, 2002). Anti-fungal susceptibility testing of these compounds of Formula 1 was done by broth dilution method using RPMI 1640 medium with MOPS buffer. Known anti-fungal agents like Fluconazole and Amphotericin-B were used as standards. End points were determined after 48 hours visually and by using spectrophotometer wherever necessary.

[2] = system: Aspergillus niger ATCC 16404; test: Antifungal MIC by broth dilution (CLSI M38-A), RPMI 1640 with MOPS; settings: broth macro-dilution, end point after 48 hours, MIC = 80% inhibition vs growth control (Amphotericin B: complete inhibition); for MIC: Aspergillus niger, ATCC16404
Procedure: as §1

[3] = system: Fusarium proliferatum ATCC 10052; test: as above; settings: broth macro-dilution, end point after 48 hours, MIC = 80% inhibition vs growth control (Amphotericin B: complete inhibition); for MIC: Fusarium proliferatum, ATCC10052, read-out: MIC F. proliferatum ATCC 10052
Procedure: as §1

Structure (SMILES) | MIC [1] [µg/mL] | MIC [2] [µg/mL] | MIC [3] [µg/mL] | MIC C. albicans ATCC 24433 [1] [µg/mL] | MIC A. niger ATCC 16404 [2] [µg/mL] | MIC F. proliferatum ATCC 10052 [3] [µg/mL]
CCOC(=O)c1c(NCC(O)(Cn2cncn2)c2ccc(F)cc2F)sc2c1CCC2 (stereo not drawn) [Compound 1g, Ethyl 2-[2-(2,4-difluorophenyl)-2-hydroxy-3-[1,2,4]triazol-1-yl-propylamino]-5,6-dihydro-4H-cyclopenta[b]thiophene-3-carboxylate] | 2 (≈ 4.46 µM) | > 8 | > 8 |  |  | 
CCCCCCCc1cc(C(=O)OCC)c(NCC(O)(Cn2cncn2)c2ccc(F)cc2F)s1 (stereo not drawn) [Compound 1d, Ethyl 2-[2-(2,4-difluorophenyl)-2-hydroxy-3[1,2,4]triazol-1-yl-propylamino]-5-heptyl-thiophene-3-carboxylate] | > 8 | > 8 | > 8 |  |  | 
CCCc1cc(C(=O)OCC)c(NCC(O)(Cn2cncn2)c2ccc(F)cc2F)s1 (stereo not drawn) [Compound 1c, Ethyl 2-[2-(2,4-difluorophenyl)-2-hydroxy-3-[1,2,4]triazol-1-yl-propylamino]-5-propyl-thiophene-3-carboxylate] | 2 (≈ 4.44 µM) | > 16 | > 16 |  |  | 
CCCCCCCCCCc1cc(C(=O)OCC)c(NCC(O)(Cn2cncn2)c2ccc(F)cc2F)s1 (stereo not drawn) [Compound 1e, Ethyl 5-n-decyl-2-[2-(2,4-difluorophenyl)-2-hydroxy-3-[1,2,4]triazol-1-yl-propylamino]-thiophene-3-carboxylate] | > 4 | > 4 | > 4 |  |  | 
CCOC(=O)c1c(NCC(O)(Cn2cncn2)c2ccc(F)cc2F)sc2c1CCCC2 (stereo not drawn) [Compound 1h, Ethyl 2-[2-(2,4-difluorophenyl)-2-hydroxy-3-[1,2,4]triazol-1-yl-propylamino]-4,5,6,7-tetrahydro-benzo[b]thiophene-3-carboxylate] | 4 (≈ 8.65 µM) | > 4 | > 4 |  |  | 
CCOC(=O)c1cc(C)sc1NCC(O)(Cn1cncn1)c1ccc(F)cc1F (stereo not drawn) [Compound 1a, Ethyl 2-[2-(2,4-difluorophenyl)-2-hydroxy-3-[1,2,4]triazol-1-yl-propylamino]-5-methyl-thiophene-3-carboxylate] | 2 (≈ 4.73 µM) | > 16 | > 16 |  |  | 
CCOC(=O)c1cc(CC)sc1NCC(O)(Cn1cncn1)c1ccc(F)cc1F (stereo not drawn) [Compound 1b, Ethyl 2-[2-(2,4-difluorophenyl)-2-hydroxy-3-[1,2,4]triazol-1-yl-propylamino]-5-ethyl-thiophene-3-carboxylate] | 2 (≈ 4.58 µM) | > 4 | > 4 |  |  | 
CCOC(=O)c1cc(CCCOCc2ccccc2)sc1NCC(O)(Cn1cncn1)c1ccc(F)cc1F (stereo not drawn) [Compound 1f, Ethyl 5-(3-benzyloxypropyl)-2-[2-(2,4-difluorophenyl)-2-hydroxy-3-[1,2,4]triazol-1-yl-propylamino]-thiophene-3-carboxylate] | > 4 | > 4 | > 4 |  |  | 
C[C@@H]1[C@H](O)[C@@H](C)/C=C/C=C/C=C/C=C/C=C/C=C/C=C/[C@H](O[C@@H]2O[C@H](C)[C@@H](O)[C@H](N)[C@@H]2O)C[C@@H]2O[C@](O)(C[C@@H](O)C[C@@H](O)[C@H](O)CC[C@@H](O)C[C@@H](O)CC(=O)O[C@H]1C)C[C@H](O)[C@H]2C(=O)O [Amphotericin B, reference compound] |  |  |  | 0.25 (≈ 0.271 µM) | 1 (≈ 1.08 µM) | 2 (≈ 2.16 µM)

The remaining lines, values ahead:

MIC [1] [µg/mL] | MIC [2] [µg/mL] | MIC [3] [µg/mL] | MIC C. albicans ATCC 24433 [1] [µg/mL] | MIC A. niger ATCC 16404 [2] [µg/mL] | MIC F. proliferatum ATCC 10052 [3] [µg/mL] | Structure (SMILES)
1 (≈ 3.27 µM) | 128 (≈ 418 µM) | > 128 |  |  |  | OC(Cn1cncn1)(Cn1cncn1)c1ccc(F)cc1F [Fluconazole]
0.12 (≈ 0.297 µM) | > 32 | > 32 |  |  |  | CCCc1cc(C#N)c(NCC(O)(Cn2cncn2)c2ccc(F)cc2F)s1 (stereo not drawn) [Compound 1m, 2-[2-(2,4-Difluorophenyl)-2-hydroxy-3-[1,2,4]triazol-1-yl-propylamino]-5-propyl-thiophene-3-carbonitrile]
8 (≈ 16.8 µM) | > 8 | > 8 |  |  |  | CCOC(=O)c1c(NCC(O)(Cn2cncn2)c2ccc(F)cc2F)sc2c1CCCCC2 (stereo not drawn) [Compound 1i, Ethyl 2-[2-(2,4-difluorophenyl)-2-hydroxy-3-[1,2,4]triazol-1-yl-propylamino]-5,6,7,8-tetrahydro-4H-cyclohepta[b]thiophene-3-carboxylate]
0.25 (≈ 0.642 µM) | > 16 | > 16 |  |  |  | CCc1cc(C#N)c(NCC(O)(Cn2cncn2)c2ccc(F)cc2F)s1 (stereo not drawn) [Compound 1l, 2-[2-(2,4-Difluorophenyl)-2-hydroxy-3-[1,2,4]triazol-1-yl-propylamino]-5-ethyl-thiophene-3-carbonitrile]
0.25 (≈ 0.579 µM) | > 4 | > 4 |  |  |  | CCCCCc1cc(C#N)c(NCC(O)(Cn2cncn2)c2ccc(F)cc2F)s1 (stereo not drawn) [Compound 1n, 2-[2-(2,4-Difluorophenyl)-2-hydroxy-3-[1,2,4]triazol-1-yl-propylamino]-5-pentyl-thiophene-3-carbonitrile]
0.5 (≈ 1.33 µM) | > 32 | > 32 |  |  |  | Cc1cc(C#N)c(NCC(O)(Cn2cncn2)c2ccc(F)cc2F)s1 (stereo not drawn) [Compound 1k, 2-[2-(2,4-Difluorophenyl)-2-hydroxy-3-[1,2,4]triazol-1-yl-propylamino]-5-methyl-thiophene-3-carbonitrile]
0.5 (≈ 1.25 µM) | > 16 | > 16 |  |  |  | N#Cc1c(NCC(O)(Cn2cncn2)c2ccc(F)cc2F)sc2c1CCC2 (stereo not drawn) [Compound 1o, 2-[2-(2,4-Difluorophenyl)-2-hydroxy-3-[1,2,4]triazol-1-yl-propylamino]-5,6-dihydro-4H-cyclopenta[b]thiophene-3-carbonitrile]
> 2 | > 2 | > 2 |  |  |  | CCCCCCc1sc(NCC(O)(Cn2cncn2)c2ccc(F)cc2F)c(C(=O)OCC)c1C (stereo not drawn) [Compound 1j, Ethyl 2-[2-(2,4-difluorophenyl)-2-hydroxy-3-[1,2,4]triazol-1-yl-propylamino]-5-hexyl-4-methyl-thiophene-3-carboxylate]

From patent publication US8236840B2, “Thiopene containing analogues of fluconazole as antifungal agents and process for their preparation” (Council of Scientific & Industrial Research, priority 2008, dated 2012)
